The values that follow come from US8680113B2, “BMI-1 protein expression modulators” (PTC Therapeutics, Inc., priority 2008, dated 2014).

Where only a bound is given, the exact number is not on record here.

This test deals with Bmi-1. As to the kind of experiment: Sandwich ELISA Assay (Bmi-1 ELISA in HT-1080 cells). The test is classed as cell-based, human. The gist of the method:
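Lysate Bmi-1 was quantified against a recombinant GST-Bmi-1 standard (0-8000 pg/mL) by sandwich ELISA read at OD450 with OD570 reference. The ELISA used mouse monoclonal capture, rabbit anti-Bmi-1, HRP anti-rabbit IgG and TMB. Before lysis, HT-1080 cells seeded at 8000/well were exposed to compounds for 40-48 h at 37°C with 0.5% final DMSO.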
(In general: ELISA stands for enzyme-linked immunosorbent assay.)
For orientation: IC50 means the point on the concentration scale where inhibition reaches its midpoint. For the compound `Cc1nc2ccc(F)cn2c1-c1csc(Nc2ccc(Cl)cc2)n1` [Cpd 161, N-(4-chlorophenyl)-4-(6-fluoro-2-methylimidazo[1,2-a]pyridin-3-yl)-1,3-thiazol-2-amine], the half-maximal inhibitory concentration (IC50) is less than 500 nM.

`Cc1nc2ccc(F)cn2c1-c1csc(Nc2ccc(Br)cc2)n1` [Cpd 162, N-(4-bromophenyl)-4-(6-fluoro-2-methylimidazo[1,2-a]pyridin-3-yl)-1,3-thiazol-2-amine] displayed an IC50 of less than 500 nM.

`CCOc1ccc(Nc2nc(-c3c(C)nc4ccc(F)cn34)cs2)cc1` [Cpd 163, N-(4-ethoxyphenyl)-4-(6-fluoro-2-methylimidazo[1,2-a]pyridin-3-yl)-1,3-thiazol-2-amine] yielded an IC50 of less than 500 nM.

`Cc1nc2ccc(F)cn2c1-c1csc(Nc2ccc(C(C)(C)C)cc2)n1` [Cpd 164, N-(4-tert-butylphenyl)-4-(6-fluoro-2-methylimidazo[1,2-a]pyridin-3-yl)-1,3-thiazol-2-amine] gave an IC50 of less than 500 nM.

The compound `Cc1nc2ccc(F)cn2c1-c1csc(Nc2ccc(Br)cc2Cl)n1` [Cpd 165, N-(4-bromo-2-chlorophenyl)-4-(6-fluoro-2-methylimidazo[1,2-a]pyridin-3-yl)-1,3-thiazol-2-amine] showed an IC50 of less than 500 nM.

Consider `Fc1ccccc1Nc1nccc(-c2cnc3ccccn23)n1` [Cpd 166, N-(2-fluorophenyl)-4-(imidazo[1,2-a]pyridin-3-yl)pyrimidin-2-amine], for which the IC50 was less than 500 nM.

As for `CC(=O)c1ccc(N(C)c2nccc(-c3c(C)nc4ccccn34)n2)cc1` [Cpd 167, 1-(4-{methyl[4-(2-methylimidazo[1,2-a]pyridin-3-yl)pyrimidin-2-yl]amino}phenyl)ethanone], the IC50 was less than 500 nM.

The compound `Cc1ccc(Nc2nccc(-c3c(C)nc4ncccn34)n2)cc1` [Cpd 168, 4-(2-methylimidazo[1,2-a]pyrimidin-3-yl)-N-(4-methylphenyl)pyrimidin-2-amine] had an IC50 of less than 500 nM.

Take `Cc1ccc(Nc2nccc(-c3c(C)nc4ccccn34)n2)cc1` [Cpd 169, 4-(2-methylimidazo[1,2-a]pyridin-3-yl)-N-(4-methylphenyl)pyrimidin-2-amine]: the IC50 was less than 500 nM.

`Cc1ccc(N(C)c2nccc(-c3c(C)nc4ncccn34)n2)cc1` [Cpd 170, N-methyl-4-(2-methylimidazo[1,2-a]pyrimidin-3-yl)-N-(4-methylphenyl)pyrimidin-2-amine] displayed an IC50 of less than 500 nM.

The compound `CCCc1nc2ccccn2c1-c1csc(Nc2ccc(OC)c(F)c2)n1` [Cpd 171, N-(3-fluoro-4-methoxyphenyl)-4-(2-propylimidazo[1,2-a]pyridin-3-yl)-1,3-thiazol-2-amine] returned an IC50 of less than 500 nM.

With `CCCc1nc2ccccn2c1-c1csc(Nc2ccc(OC)c(Cl)c2)n1` [Cpd 172, N-(3-chloro-4-methoxyphenyl)-4-(2-propylimidazo[1,2-a]pyridin-3-yl)-1,3-thiazol-2-amine], the IC50 was less than 500 nM.

In turn, `CCCc1nc2ccccn2c1-c1csc(Nc2ccc(OCC)cc2)n1` [Cpd 173, N-(4-ethoxyphenyl)-4-(2-propylimidazo[1,2-a]pyridin-3-yl)-1,3-thiazol-2-amine] returned an IC50 of less than 500 nM.

In turn, `CCCc1nc2ccccn2c1-c1csc(Nc2ccc(I)cc2)n1` [Cpd 174, N-(4-iodophenyl)-4-(2-propylimidazo[1,2-a]pyridin-3-yl)-1,3-thiazol-2-amine] displayed an IC50 of less than 500 nM.

The compound `CCCc1nc2ccccn2c1-c1csc(Nc2ccc3c(c2)OCO3)n1` [Cpd 175, N-(1,3-benzodioxol-5-yl)-4-(2-propylimidazo[1,2-a]pyridin-3-yl)-1,3-thiazol-2-amine] registered a concentration for half-maximal inhibition (IC50) of less than 500 nM.

Turning to `CCCc1nc2ccccn2c1-c1csc(Nc2ccc(N(C)C)cc2)n1` [Cpd 176, N,N-dimethyl-N′-[4-(2-propylimidazo[1,2-a]pyridin-3-yl)-1,3-thiazol-2-yl]benzene-1,4-diamine], the IC50 was less than 500 nM.
